From US20050180921A1, “Contrast agents to improve gastrointestinal tract opacification during abdominal and pelvic CT scans” (priority 2004, published 2005)

System: gastrointestinal tract
Experiment: CT of abdomen and pelvis after oral agent: bowel distension, wall visualization, transit to colon
Type: in vivo, human
Protocol: Institutional review board approval was obtained. These materials were offered to outpatients (ranging from 18 to 89 years of age) in random fashion. In each case, the patient was given literature to explain the project and then asked to sign a consent form. Those who declined participation in the study were given dilute iodinated contrast or water as appropriate for the exam. […] The amount of each material, 1600 cc, and timing, approximately 60 minutes, were standard for the preparation protocol used with dilute iodinated contrast. Although scanning parameters varied slightly, depending on the clinical question, all patients received 5 mm or less slices through the abdomen and pelvis. […] Where given, the intravenous contrast agent was administered from 3-5 cc/sec for 100-150 cc of 300 mg % non-ionic contrast.
Each drink was labeled with a letter A-E to blind the administered substance to the reader. […] Each CT scan was read by consensus by two readers. Each exam was rated for various characteristics. The stomach was rated for distention: 1=well distended; 2=adequate distention; 3=poor distention. The small bowel was rated for two characteristics. The distention was assessed with measurements taken from the left upper quadrant (LUQ), the pelvis, and the right lower quadrant (RLQ) areas. Three measures were taken at each area with the greatest diameters used. The diameters were then averaged. The definition of the bowel wall was also graded using visualization of the wall separate from the luminal contents as well as the ability to appreciate the valvulae conniventes when present (1=excellent, 2=good, 3=fair, 4=poor, 5=non-diagnostic). Finally, an attempt was made to assess whether the ingested liquid was able to reach the colon during the preparation time period (0=no oral contrast in colon, 1=oral contrast in colon).

O [Water, water]
LUQ small bowel distention (averaged greatest diameters) (1600 cc oral, approximately 60 minutes, left upper quadrant, group mean): 17.50 mm
Pelvis small bowel distention (averaged greatest diameters) (1600 cc oral, approximately 60 minutes, pelvis, group mean): 14.79 mm
RLQ small bowel distention (averaged greatest diameters) (1600 cc oral, approximately 60 minutes, right lower quadrant, group mean): 14.14 mm
mid to distal / small bowel distention, result in words (FIGS. 2A-2D and study in general): least effective
Wall (definition of the bowel wall, qualitative evaluation) (mean grade, 1=excellent, 2=good, 3=fair, 4=poor, 5=non-diagnostic): 2.23
Stomach (distention, qualitative evaluation) (mean grade, 1=well distended, 2=adequate distention, 3=poor distention): 2.13
Colon (ingested liquid reached the colon during preparation time) (mean, 0=no oral contrast in colon, 1=oral contrast in colon): .020
